Legend:
[1] = target: T1, rat α4β2 nAChR (Rattus norvegicus, UniProt P09483+P12390); format: cell-based
[2] = target: T2, 5-HT3A receptor (Rattus norvegicus, UniProt P35563); experiment: Two-electrode voltage clamp electrophysiology in Xenopus oocytes, 5-HT3A; format: cell-based
T2 sequence (P35563 24-483): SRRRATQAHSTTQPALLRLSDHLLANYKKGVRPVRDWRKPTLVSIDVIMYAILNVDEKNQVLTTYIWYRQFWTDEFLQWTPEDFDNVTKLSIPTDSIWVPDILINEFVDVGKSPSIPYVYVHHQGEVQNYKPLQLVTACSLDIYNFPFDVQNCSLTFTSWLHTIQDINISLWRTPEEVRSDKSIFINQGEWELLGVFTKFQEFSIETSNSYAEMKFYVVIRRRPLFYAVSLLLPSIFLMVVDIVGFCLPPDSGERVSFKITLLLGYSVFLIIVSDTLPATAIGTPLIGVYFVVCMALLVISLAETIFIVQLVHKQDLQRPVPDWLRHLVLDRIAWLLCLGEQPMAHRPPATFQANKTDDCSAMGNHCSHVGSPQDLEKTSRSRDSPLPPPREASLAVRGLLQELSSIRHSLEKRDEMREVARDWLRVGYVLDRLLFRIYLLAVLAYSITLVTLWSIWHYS

[3] = target: Human α4β2 nAChR (Homo sapiens, UniProt P17787+P43681); format: cell-based; details: for agonist character, α4β2: relative to nicotine
Chain of Human α4β2 nAChR (P43681 29-627 limits assumed): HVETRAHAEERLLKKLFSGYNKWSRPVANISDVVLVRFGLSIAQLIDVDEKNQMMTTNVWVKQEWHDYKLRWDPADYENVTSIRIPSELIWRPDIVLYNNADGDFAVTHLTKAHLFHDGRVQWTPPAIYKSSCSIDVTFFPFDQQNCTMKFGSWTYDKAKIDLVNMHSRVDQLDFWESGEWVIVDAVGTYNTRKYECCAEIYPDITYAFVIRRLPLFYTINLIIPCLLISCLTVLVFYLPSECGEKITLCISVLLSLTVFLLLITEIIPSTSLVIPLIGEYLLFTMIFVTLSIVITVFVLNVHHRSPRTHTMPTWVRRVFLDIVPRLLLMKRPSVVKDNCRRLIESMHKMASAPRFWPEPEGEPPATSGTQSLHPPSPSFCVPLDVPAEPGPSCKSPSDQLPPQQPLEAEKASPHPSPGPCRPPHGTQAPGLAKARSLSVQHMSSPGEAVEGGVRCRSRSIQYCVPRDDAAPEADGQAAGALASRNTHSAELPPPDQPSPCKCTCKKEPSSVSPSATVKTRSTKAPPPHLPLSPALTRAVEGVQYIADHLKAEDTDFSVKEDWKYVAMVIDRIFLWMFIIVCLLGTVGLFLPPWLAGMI
Chain of Human α4β2 nAChR (P17787 26-502): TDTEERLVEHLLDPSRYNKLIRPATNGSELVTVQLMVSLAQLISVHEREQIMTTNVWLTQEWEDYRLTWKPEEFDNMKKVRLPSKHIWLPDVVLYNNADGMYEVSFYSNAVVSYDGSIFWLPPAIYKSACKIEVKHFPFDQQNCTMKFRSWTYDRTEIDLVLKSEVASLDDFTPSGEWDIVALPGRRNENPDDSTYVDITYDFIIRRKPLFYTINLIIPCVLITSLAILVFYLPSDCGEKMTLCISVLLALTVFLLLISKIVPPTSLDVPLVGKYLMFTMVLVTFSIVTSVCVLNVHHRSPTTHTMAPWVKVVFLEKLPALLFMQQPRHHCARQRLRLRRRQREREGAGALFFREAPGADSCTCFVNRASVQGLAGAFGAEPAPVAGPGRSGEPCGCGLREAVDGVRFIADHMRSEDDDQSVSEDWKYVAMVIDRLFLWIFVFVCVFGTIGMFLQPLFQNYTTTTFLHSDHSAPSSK

[4] = target: T3, rat α7 nAChR (Rattus norvegicus, UniProt Q05941); format: cell-based
T3 sequence (Q05941 23-502): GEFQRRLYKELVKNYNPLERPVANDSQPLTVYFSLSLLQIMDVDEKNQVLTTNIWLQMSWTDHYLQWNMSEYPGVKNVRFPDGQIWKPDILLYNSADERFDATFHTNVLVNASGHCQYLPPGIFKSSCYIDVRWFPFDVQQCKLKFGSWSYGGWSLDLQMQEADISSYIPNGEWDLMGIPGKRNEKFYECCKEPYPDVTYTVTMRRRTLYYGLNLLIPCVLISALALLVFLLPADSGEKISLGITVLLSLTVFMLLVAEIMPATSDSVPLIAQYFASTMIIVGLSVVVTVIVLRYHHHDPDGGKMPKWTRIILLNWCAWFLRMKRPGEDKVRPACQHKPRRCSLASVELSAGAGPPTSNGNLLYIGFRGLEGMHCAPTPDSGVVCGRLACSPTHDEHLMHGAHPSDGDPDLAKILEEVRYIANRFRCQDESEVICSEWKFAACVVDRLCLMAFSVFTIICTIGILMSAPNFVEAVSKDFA

[5] = target: T1, rat α4β2 nAChR; format: binding
[6] = In-vivo toxicity; details: male, Swiss-Webster, mouse, in vivo, iv
[7] = target: native nAChR in rat forebrain (Rattus norvegicus, UniProt P09483+P12390); format: binding
Chain of native nAChR in rat forebrain (P12390 25-500): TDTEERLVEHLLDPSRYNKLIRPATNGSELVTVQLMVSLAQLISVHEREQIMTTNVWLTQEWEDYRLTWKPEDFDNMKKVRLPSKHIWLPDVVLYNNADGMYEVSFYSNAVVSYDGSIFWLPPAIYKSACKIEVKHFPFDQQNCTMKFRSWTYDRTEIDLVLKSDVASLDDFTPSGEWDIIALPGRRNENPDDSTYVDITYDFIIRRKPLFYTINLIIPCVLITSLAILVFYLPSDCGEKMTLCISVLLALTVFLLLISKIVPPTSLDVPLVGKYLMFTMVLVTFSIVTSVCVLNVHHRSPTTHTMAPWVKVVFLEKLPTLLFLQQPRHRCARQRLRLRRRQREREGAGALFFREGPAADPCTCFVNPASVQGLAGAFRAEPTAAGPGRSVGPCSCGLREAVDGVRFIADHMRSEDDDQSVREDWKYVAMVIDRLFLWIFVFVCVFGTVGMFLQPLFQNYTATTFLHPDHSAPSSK
Chain of native nAChR in rat forebrain (P09483 31-630): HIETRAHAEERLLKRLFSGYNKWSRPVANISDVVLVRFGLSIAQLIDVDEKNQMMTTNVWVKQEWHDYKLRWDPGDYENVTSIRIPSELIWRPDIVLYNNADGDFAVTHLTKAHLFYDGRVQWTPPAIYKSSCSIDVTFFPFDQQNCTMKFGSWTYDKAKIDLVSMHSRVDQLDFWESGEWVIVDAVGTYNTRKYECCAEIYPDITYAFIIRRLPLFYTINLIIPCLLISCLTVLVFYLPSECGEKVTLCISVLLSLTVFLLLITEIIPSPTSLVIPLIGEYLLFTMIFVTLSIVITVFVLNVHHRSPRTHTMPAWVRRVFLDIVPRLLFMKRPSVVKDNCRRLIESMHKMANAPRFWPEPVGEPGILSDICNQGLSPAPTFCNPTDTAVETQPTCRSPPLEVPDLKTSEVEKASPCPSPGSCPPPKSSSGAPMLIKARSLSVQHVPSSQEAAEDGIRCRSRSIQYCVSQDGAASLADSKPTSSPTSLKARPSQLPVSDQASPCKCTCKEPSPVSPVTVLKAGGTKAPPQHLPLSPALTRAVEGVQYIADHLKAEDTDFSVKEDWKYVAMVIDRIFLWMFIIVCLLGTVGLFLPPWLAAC

[8] = target: T4, rat α3β4 nAChR (Rattus norvegicus, UniProt P04757+P12392); format: binding
T4 sequence (P12392 21-495): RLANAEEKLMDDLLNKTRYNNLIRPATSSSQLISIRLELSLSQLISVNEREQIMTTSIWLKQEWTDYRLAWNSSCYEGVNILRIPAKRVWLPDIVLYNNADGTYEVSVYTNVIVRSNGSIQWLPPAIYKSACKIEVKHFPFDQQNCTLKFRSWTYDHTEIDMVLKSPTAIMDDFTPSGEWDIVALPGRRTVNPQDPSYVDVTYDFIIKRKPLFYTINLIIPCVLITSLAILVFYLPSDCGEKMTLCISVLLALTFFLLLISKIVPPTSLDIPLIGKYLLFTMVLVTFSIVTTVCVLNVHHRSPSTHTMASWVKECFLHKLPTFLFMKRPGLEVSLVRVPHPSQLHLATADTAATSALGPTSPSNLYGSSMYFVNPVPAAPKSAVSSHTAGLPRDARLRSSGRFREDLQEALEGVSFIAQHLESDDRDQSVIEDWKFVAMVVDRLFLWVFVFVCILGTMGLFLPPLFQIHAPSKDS
T4 sequence (P04757 26-499): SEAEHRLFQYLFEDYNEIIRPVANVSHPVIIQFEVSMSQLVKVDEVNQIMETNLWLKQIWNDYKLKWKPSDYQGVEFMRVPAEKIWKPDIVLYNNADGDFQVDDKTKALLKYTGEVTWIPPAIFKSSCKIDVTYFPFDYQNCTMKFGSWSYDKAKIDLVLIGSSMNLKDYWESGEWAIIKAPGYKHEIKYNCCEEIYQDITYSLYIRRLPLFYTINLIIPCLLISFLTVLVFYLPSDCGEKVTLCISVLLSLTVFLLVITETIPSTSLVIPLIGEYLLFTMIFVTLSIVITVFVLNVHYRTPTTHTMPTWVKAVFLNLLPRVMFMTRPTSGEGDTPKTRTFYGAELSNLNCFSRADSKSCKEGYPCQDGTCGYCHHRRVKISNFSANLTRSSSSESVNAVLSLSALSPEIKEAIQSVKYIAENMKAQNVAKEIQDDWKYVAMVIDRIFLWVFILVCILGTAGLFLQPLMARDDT

[9] = target: rat α3β2 nAChR (Rattus norvegicus, UniProt P04757+P12390); experiment: Two-electrode voltage clamp electrophysiology in Xenopus oocytes, α3β2; format: cell-based
Chain of rat α3β2 nAChR (P04757 26-499): as above
Chain of rat α3β2 nAChR (P12390 25-500): as the sequence (P12390 25-500) above

[10] = target: T4, rat α3β4 nAChR; experiment: cell-based; format: cell-based
[11] = test system: Swiss-Webster mice; details: cited from earlier work
[12] = target: T3, rat α7 nAChR; format: binding
[13] = test system: nAChR; experiment: Overall nAChR pharmacology, summary statements; details: most receptors tested
[14] = test system: Swiss-Webster mice; experiment: In-vivo toxicity; details: mice; for signs of toxicity: intravenous

T1 sequence (P09483 31-630): as the sequence (P09483 31-630) above
T1 sequence (P12390 25-500): as the sequence (P12390 25-500) above

CO[C@H]1CC=C2CCN3CCC4=C(CC(=O)OC4)[C@]23C1 [DHβE, dihydro-β-erythroidine, reference compound]
block of currents induced by 10 nM (±)-1 ([1]; 2 min pre-application of 10 nM DHβE, n=4, α3β2 and α4β2 currents): completely blocked

Clc1ccc2c(n1)OC13CCC1NCC23 (racemic) [(±)-1, phantasmidine]
Hillslope 5HT3A [2]: 1.7
agonist character, 5-HT3A ([2]; vs meta-chlorophenylbiguanide (mCPBG), oocytes): partial agonist
Eudismic Ratio, 86Rb efflux α4β2 [3]: 280
difference in functional potency vs 2a, α4β2 ([3]; 86Rb efflux): 8 fold
agonist character, α4β2 ([3]; 86Rb efflux): very potent partial agonist
Hillslope α7 [4]: 1.8
agonist character, α7 ([4]; vs acetylcholine, oocytes): full agonist
Hillslope α4β2 [1]: 1.6
agonist character, α4β2 ([1]; vs acetylcholine, oocytes): partial agonist
lower binding affinity than epibatidine (2a), α4β2 [5]: 10 fold
higher affinity for α4β2 over α3β4 receptors ([5]; binding): at least 30 fold
LD50 [6]: 0.27 ± 0.19 mg/kg
lower binding affinity than epibatidine (2a), native receptors in rat forebrain [7]: 25 fold
lower binding affinity than epibatidine (2a), α3β4 [8]: 50 fold
Hillslope α3β2 [9]: 1.57
agonist character, α3β2 ([9]; vs acetylcholine, oocytes): partial agonist
Eudismic Ratio, 86Rb efflux α3β4 [10]: 47
difference in functional potency vs 2a, α3β4 ([10]; 86Rb efflux): 18 fold
agonist character, α3β4 ([10]; 86Rb efflux, relative to nicotine): near-full agonist

Clc1ccc2c(n1)O[C@@]13CC[C@@H]1NC[C@@H]23 [(2aS,4aR,9aR)-ent-1]
agonist character, α4β2 ([3]; 86Rb efflux): full agonist
Hillslope α7 [4]: 1.3
Hillslope α4β2 [1]: 1.7

CC(=O)OCC[N+](C)(C)C [Acetylcholine, reference compound]
Hillslope α7 [4]: 1.5
Imax α7 ([4]; normalized to 1 mm acetylcholine): 1.0 ± 0.1
Hillslope α4β2 [1]: 24 ± 6 (1.0 ± 0.1) 1.0
Imax α4β2 [1]: 24 ± 6 (1.0 ± 0.1) 1.0

CN1CCC[C@H]1c1cccnc1 [2S-(−)-Nicotine, reference compound]
Emax ([10]; read-out: Emax Rat α3β4): 107 ± 3%
LD50 in mouse [11]: 0.3 mg/kg

Clc1ccc2c(n1)O[C@]13CC[C@H]1NC[C@H]23 [(2aR,4aS,9aS)-1, phantasmidine]
affinity less than 2a, α7 [12]: 2 fold
Eudismic Ratio, electrophysiology α7 [4]: 5
Hillslope α7 [4]: 1.5
Hillslope α4β2 [1]: 1.8
higher affinity than the distomer ent-1 ([5]; across the subtypes and forebrain of Table 1): 30-44 fold
less potent than epibatidine [13]: ~ 10 fold
more potent than nicotine [13]: ~ 100 fold
LD50 [6]: 0.072 ± 0.014 mg/kg
less toxic than racemic 2a ([14]; LD50 comparison): 48 fold
signs of toxicity ([14]; dose of 40 μg/kg): piloerection, slight elevated respiration and complete recovery in less than 1 min
signs of toxicity ([14]; dose of 50 μg/kg): piloerection, elevated respiration, hyperactivity (running) progressing to tonic clonic seizures and death in less than 30 sec
eudismic ratio of toxicity [14]: around 100

CN1[C@@H]2CC[C@H]1C[C@@H](OC(=O)c1c[nH]c3ccccc13)C2 [tropisetron, reference compound]
block of currents induced by 100 μM (±)-1 [2]: completely blocks

Clc1ccc(C2CC3CCC2N3)cn1 (racemic) [(±)-2, epibatidine, reference compound]
LD50 [6]: 0.0015 ± 0.0003 mg/kg

— article PMC7142328 (Journal of natural products, 2018)
